# Patent US8790874B2, “Device for investigation of a flow conduit” (priority 2008, dated 2014)
# Columns and labels:
# Type in all cases: cell-based
# mouse mesenteric vessel = assay: Constriction of a mesenteric vessel in the device, single dose of PE; conditions: 3.0 μM PE, representative tracing
# Description: In another example, the device was used to investigate a mesenteric vessel. […] In this example, a mouse mesenteric vessel was used, and a single does of PE was administered. The PE was applied to the exterior surface of the flow conduit. a) is a representative tracing of a mesenteric vessel's response to 3.0 μM PE, with a sustained constriction of 41.8%, measured in freshly isolated arteries that were immediately subjected to the stimulation with PE. b) is a representative tracing of a single mesenteric vessel kept in culture for 24 hours on the device prior to testing the response to PE, showing a sustained constriction of 41.4% to 3.0 μM PE.
# mesenteric arteries [1] = assay: PE dose response of mesenteric arteries, conventional pipette cannulation setup; conditions: 3.0 μM PE applied to exterior surface, n=5
# From the text: The device may be used to investigate responses of biological flow conduits. […] In this example, PE was applied to the exterior surface of the flow conduit, and the dose of PE was changed in a stepwise fashion.
# mouse mesenteric artery = assay: FURA-2 Ca2+ ratiometric measurements on a mesenteric artery fixed on the device; conditions: stimulation with 3.0 μM PE; return to baseline following washout
# From the text: The smooth muscle cells in the artery are stained.
# mesenteric arteries [2] = assay: PE dose response of mesenteric arteries measured using the device; conditions: 3.0 μM PE applied to exterior surface, n=5
# From the text: An example process of loading a flow conduit, in this case an artery, into this example embodiment of the device is now described. The device was initially flushed with a Bovine serum albumin (BSA) solution to prevent any unwanted adhesion of arteries to the walls of the main channel or culture chamber. […] As an alternative to the reversible fixation of the artery used here, an irreversible fixation method may be used, as discussed above.
# Upon fixation (e.g., using a reversible fixation method), the lumen of the artery was perfused by operating a syringe pump, connected to an inlet of the culture channel, in the perfusion mode. By connecting the inlet and outlet of the culture channel to different hydrostatic pressure levels, a flow through the culture chamber was achieved while maintain a defined transmural pressure difference across the wall of the artery. A flow through the culture chamber was achieved while maintaining a defined transmural pressure difference (i.e., P1−P3 in FIG. 1) by superfusing the culture chamber with a second syringe pump that operates in the perfusion mode, connected at the inlet of the culture channel. The outlet of the culture channel was thus led to a reduced hydrostatic pressure level. […]
smiles,measurement,setting,value
"CNC[C@H](O)c1cccc(O)c1 [PE, phenylephrine]",sustained constriction,"mouse mesenteric vessel; freshly isolated arteries, immediately stimulated",41.8%
same,sustained constriction,mouse mesenteric vessel; vessel kept in culture for 24 hours on the device before testing,41.4%
same,maximal outer diameter constriction,mesenteric arteries [1],44.5+/−2.5%
same,FURA-2 ratio (F340nm/F380nm),mouse mesenteric artery,increase in FURA-2 ratio
same,maximal outer diameter constriction,mesenteric arteries [2],42.2+/−3.8%
